Laboratory results from US8282938B2 (priority 2008, dated 2012).

Tested on: HLA-A*2402-restricted cytotoxic T lymphocytes
Set-up: species or system transgenic mice expressing the HLA-A*2402 molecule (A24Tg)
Details: mouse, in vivo

| Sequence | CTL activity | Specific killing |
| --- | --- | --- |
| CFNPMIVEL [PA_8] | low activity | 10% |
| EWFRNVLSI [PB1_331] | low activity | 7% |
| IFLARSALI [NP_257] | low activity | 16% |
| KTTPRPLRL [PA_262] | high CTL activity | 58% |
| LWILDRLFF [M2_40] | low activity | 10% |
| MYQKCCTLF [PB1_688] | high CTL activity | 89% |
| RYTKTTYWW [PB1_430] | high CTL activity | 96% |
| SFSFGGFTF [PB2_322] | high CTL activity | 38% |
| SLLTEVETL [M2_2] | low activity |  |
| SYINRTGTF [PB1_482] | high CTL activity | 56% |
| SYLIRALTL [PB1_216] | high CTL activity | 22% |
| TYFEKVERL [PB2_117] | low activity | 13% |
| TYQWIIRNW [PB2_549] | high CTL activity | 96% |
| YYLEKANKI [PA_130] | high CTL activity | 95% |

Tested on: HLA-A*0201-restricted cytotoxic T lymphocytes
Set-up: species or system mice expressing the HLA-A*0201 molecule (HHD mice)
Details: mouse, in vivo

| Sequence | CTL activity | Specific killing |
| --- | --- | --- |
| GMFNMLSTV [PB1_410] | high CTL activity | 87% |
